The subject of data set [1] is HCT-116 colon carcinoma cells. The data set is described as follows: MTT assay, 96 h. The class given is cell-based, human. The source says: The oncosuppressor protein p53 controls the cellular response to DNA strand breaks induced by cytotoxic drugs or by radiation.[58] The p53 protein may enhance cell chemosensitivity by promoting apoptosis via different mechanisms including activation of proapoptotic genes such as bax and repression of antiapoptotic genes such as bcl-2 or in contrast increase chemoresistance by promoting p21-mediated and p21-independent growth arrest and DNA repair and by activation of antiapoptotic genes such as bcl-x. There is strong evidence that the modulation of drug sensitivity by p53 may be both drug- and cell type-specific.[59] […] Accordingly, essential differences in chemosensitivity were observed between cells with wild-type p53 gene and cells with knocked out p53 gene by homologous recombination.[60]
Human colonic adenocarcinoma cell lines Colo 205 doxorubicin-sensitive (ATCC-CCL-222) and Colo 320/MDR-LRP multidrug resistant over-expressing ABCB1 (MDR1)-LRP (ATCC-CCL-220.1) were purchased from LGC Promochem, Teddington, UK. The cells were cultured in an RPMI 1640 medium supplemented with 10% heat-inactivated fetal bovine serum, 2 mM L-glutamine, 1 mM Na-pyruvate, and 10 mM HEPES. The semi-adherent human colon cancer cells were detached with Trypsin-Versene (EDTA) solution for 5 min at 37 °C. An MRC-5 human embryonal lung fibroblast cell line (ATCC CCL-171) was purchased from LGC Promochem, Teddington, UK. The cells were cultured in Eagle’s minimal essential medium (EMEM, containing 4.5 g L^–1 glucose) supplemented with a non-essential amino acid mixture, a selection of vitamins, and 10% heat-inactivated fetal bovine serum. The HCT-116 colon carcinoma cells and isogenic p53-knock-out subline were a gift of Prof. Bert Vogelstein from The Johns Hopkins Oncology Center. Cells were cultured in McCoy’s 5A medium supplemented with 10% heat-inactivated fetal bovine serum and 4 mM L-glutamine. All cell lines were incubated at 37 °C, in a 5% CO2, 95% air atmosphere.
MRC-5 non-cancerous human embryonic lung fibroblast and human colonic adeno-carcinoma cell lines (doxorubicin-sensitive Colo 205 and multidrug resistant Colo 320 colonic adenocarcinoma cells) were used to determine the effect of compounds on cell growth. The effects of increasing concentrations of compounds on cell growth were tested in 96-well flat-bottomed microtiter plates. The compounds were dissolved in DMSO and stock solutions of 10 mM were prepared. These were further diluted in the appropriate cell culture medium by twofold serial dilution starting from 100 or 10 μM for the compounds. The adherent human embryonal lung fibroblast cells were cultured in 96-well flat-bottomed microtiter plates using EMEM supplemented with 10% heat-inactivated fetal bovine serum. The density of the cells was adjusted to 1 × 10^4 cells in 100 μL per well, the cells were seeded for 24 h at 37 °C, 5% CO2, then the medium was removed from the plates containing the cells, and the dilutions of compounds previously made in a separate plate were added to the cells in 200 μL. In the case of the colonic adenocarcinoma cells, the twofold serial dilutions of compounds were prepared in 100 μL of RPMI 1640, horizontally. The semi-adherent colonic adenocarcinoma cells were treated with Trypsin-Versene (EDTA) solution. They were adjusted to a density of 1 × 10^4 cells in 100 μL of RPMI 1640 medium and were added to each well, with the exception of the medium control wells. […]
Background: Tetrazolium dyes change colour on reduction, which living cells bring about.

A short description of data set [2]: Aqueous stability in HEPES and PBS buffer by UV–vis. The class given is physicochemical. Conditions: pH 7.40, 10 mM HEPES or PBS, several hours. As for the experimental part: Prior to the biological assays, the aqueous stability of selected compounds (HL^4, 4, HL^8, and 8) was measured as a function of time by UV–vis spectrophotometry at pH = 7.40 in 10 mM HEPES in PBS and in blood serum diluted by factor 3 (dilutions were made in HEPES and in PBS as well). […] This process took several hours, and it was in all cases less pronounced in the PBS buffer than in the HEPES medium.
Aqueous stability of 4, 8, and HL^4 was investigated in phosphate-buffered saline (PBS) and 10 mM HEPES buffers and in three-times diluted blood serum (Sigma Aldrich, from human male AB plasma) at pH = 7.40. The concentration of the compounds was between 5 and 10 μM. Blood serum was filtered on a 1.25 μm polyethersulfone membrane syringe filter and diluted with 10 mM HEPES or PBS buffer.

The term IC50 denotes the point on the concentration scale where inhibition reaches its midpoint. In the case of `CC(=NNc1nc2ccccc2c2c1[nH]c1ccc(Br)cc12)c1ccc(CN2CCOCC2)cn1.[Cl][Cu][Cl]` [compound 8, CuCl2(HL^8)·H2O], the IC50 in data set [1] worked out at 50 nM. In data set [2], the “Behaviour in buffer solutions over time” value is given as “slow precipitation”.

Regarding `CC(=NNC1=NCc2ccccc2-c2c1[nH]c1ccc(Br)cc21)c1ccc(CN2CCOCC2)cn1.[Cl][Cu][Cl]` [compound 4, CuCl2(HL^4)·0.5H2O], the 50% inhibitory concentration (IC50) in data set [1] was 130 nM. For the same compound, the “Behaviour in buffer solutions over time” value in data set [2] is “slow precipitation”.

For the origin of these results see publication PMC8842277, “Highly Antiproliferative Latonduine and Indolo[2,3-c]quinoline Derivatives: Complex Formation with Copper(II) Markedly Changes the Kinase Inhibitory Profile” (Journal of Medicinal Chemistry, 2022).
